Measured values from ChEMBL document CHEMBL3352662, “Flow synthesis and biological activity of aryl sulfonamides as selective carbonic anhydrase IX and XII inhibitors” (Bioorg Med Chem Lett, 2014).

Tests used:
[1] = target: T1, Carbonic anhydrase 1 (Homo sapiens, UniProt P00915); experiment: Inhibition of CA-1 (unknown origin) after 15 mins by CO2 hydration assay
Target sequence in this assay (P00915 whole entry): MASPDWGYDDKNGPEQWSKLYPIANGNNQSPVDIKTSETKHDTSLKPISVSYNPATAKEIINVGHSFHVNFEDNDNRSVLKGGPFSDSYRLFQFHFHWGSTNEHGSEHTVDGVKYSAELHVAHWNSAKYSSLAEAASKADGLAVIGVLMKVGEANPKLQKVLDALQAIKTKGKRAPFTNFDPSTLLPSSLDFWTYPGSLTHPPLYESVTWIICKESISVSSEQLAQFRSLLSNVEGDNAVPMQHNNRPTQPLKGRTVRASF

[2] = target: T1, Carbonic anhydrase 1; experiment: Inhibition of CA-1 (unknown origin) at 10 uM after 15 mins by CO2 hydration assay
Target sequence in this assay (P00915 2-261 limits assumed): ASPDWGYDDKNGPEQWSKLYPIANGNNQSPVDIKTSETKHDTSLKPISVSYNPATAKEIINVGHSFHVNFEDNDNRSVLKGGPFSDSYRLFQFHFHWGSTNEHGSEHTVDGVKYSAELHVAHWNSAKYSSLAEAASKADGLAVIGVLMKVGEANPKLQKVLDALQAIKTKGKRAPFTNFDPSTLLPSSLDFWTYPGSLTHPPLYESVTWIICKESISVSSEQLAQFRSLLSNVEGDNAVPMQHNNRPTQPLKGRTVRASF

[3] = target: T2, Carbonic anhydrase 2 (Homo sapiens, UniProt P00918); experiment: Inhibition of CA-2 (unknown origin) after 15 mins by CO2 hydration assay
[4] = target: Carbonic anhydrase 9 (Homo sapiens, UniProt Q16790); experiment: Inhibition of CA-9 (unknown origin) after 15 mins by CO2 hydration assay
[5] = target: T2, Carbonic anhydrase 2; experiment: Inhibition of CA-2 (unknown origin) at 10 uM after 15 mins by CO2 hydration assay
[6] = target: Carbonic anhydrase 12 (Homo sapiens, UniProt O43570); experiment: Inhibition of CA-12 (unknown origin) after 15 mins by CO2 hydration assay
Chain of Carbonic anhydrase 12 (O43570 whole entry): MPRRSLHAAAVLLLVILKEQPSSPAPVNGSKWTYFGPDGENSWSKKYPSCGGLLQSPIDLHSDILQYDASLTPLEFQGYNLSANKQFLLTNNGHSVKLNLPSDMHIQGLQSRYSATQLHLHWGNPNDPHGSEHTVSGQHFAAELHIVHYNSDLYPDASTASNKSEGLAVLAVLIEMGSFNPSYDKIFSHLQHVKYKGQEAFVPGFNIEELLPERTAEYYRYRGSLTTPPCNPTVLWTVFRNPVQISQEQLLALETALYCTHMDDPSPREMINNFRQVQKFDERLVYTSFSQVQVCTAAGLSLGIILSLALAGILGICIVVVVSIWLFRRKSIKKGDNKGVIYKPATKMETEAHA

Q: What does the source list for `Cc1ccc(S(=O)(=O)NCCCN(C)C)cc1`?
A: IC50 [1]: > 50 µM; inhibition [2]: 39%; IC50 [3]: 6.67 µM; IC50 [4]: 0.094 µM

Q: For `Cc1ccc(S(=O)(=O)NCc2ccccc2)cc1`, which IC50 [1] is on record?
A: > 50 µM

Q: What about the inhibition [2] of the same molecule?
A: 34%

Q: And the IC50 [3]?
A: > 50 µM

Q: What about the inhibition [5] of the same molecule?
A: 44%

Q: And the IC50 [4]?
A: 0.076 µM

Q: And the IC50 [6]?
A: 4.28 µM

Q: How did the IC50 [1] turn out when `Cc1ccc(S(=O)(=O)NCC(=O)O)cc1` was run?
A: > 50 µM

Q: What about the inhibition [2] of the same molecule?
A: 39%

Q: What about the IC50 [3] of the same molecule?
A: 3.62 µM

Q: And the IC50 [4]?
A: 0.217 µM

Q: How did the IC50 [1] turn out when `CC(=O)c1ccc(S(=O)(=O)Nc2ccccc2)cc1` was run?
A: > 50 µM

Q: What about the inhibition [2] of the same molecule?
A: 36%

Q: What about the IC50 [3] of the same molecule?
A: > 50 µM

Q: What about the inhibition [5] of the same molecule?
A: 47%

Q: And the IC50 [4]?
A: 0.074 µM

Q: What does the source list for `Cc1ccc(S(=O)(=O)Nc2ccccc2-c2ccccc2)cc1`?
A: IC50 [1]: > 50 µM; inhibition [2]: 38%; IC50 [3]: 5.1 µM; IC50 [4]: 0.09 µM; IC50 [6]: 0.226 µM

Q: For `Cc1ccc(S(=O)(=O)Nc2ccccc2)cc1`, which IC50 [1] is on record?
A: > 50 µM

Q: What about the inhibition [2] of the same molecule?
A: 35%

Q: What about the IC50 [3] of the same molecule?
A: > 50 µM

Q: What about the inhibition [5] of the same molecule?
A: 45%

Q: And the IC50 [4]?
A: 0.09 µM

Q: With `CCCC(C)NS(=O)(=O)c1ccc(C)cc1` (centres undefined) as the molecule, how does the IC50 [1] read?
A: > 50 µM

Q: And the inhibition [2]?
A: 40%

Q: And the IC50 [3]?
A: 8.07 µM

Q: What about the IC50 [4] of the same molecule?
A: 0.07 µM

Q: For `COc1ccc(S(=O)(=O)Nc2ccccc2)cc1OC`, which IC50 [1] is on record?
A: > 50 µM

Q: What about the inhibition [2] of the same molecule?
A: 39%

Q: And the IC50 [3]?
A: > 50 µM

Q: What about the inhibition [5] of the same molecule?
A: 45%

Q: And the IC50 [4]?
A: 0.079 µM

Q: And the IC50 [6]?
A: 0.179 µM

Q: With `Cc1ccc(S(=O)(=O)N(C)c2ccccc2)cc1` as the molecule, how does the IC50 [1] read?
A: > 50 µM

Q: And the inhibition [2]?
A: 39%

Q: What about the IC50 [3] of the same molecule?
A: > 50 µM

Q: What about the inhibition [5] of the same molecule?
A: 45%

Q: What about the IC50 [4] of the same molecule?
A: 0.093 µM

Q: And the IC50 [6]?
A: 0.266 µM

Q: With `O=[N+]([O-])c1ccc(S(=O)(=O)Nc2ccccc2)cc1` as the molecule, how does the IC50 [1] read?
A: > 50 µM

Q: And the inhibition [2]?
A: 39%

Q: What about the IC50 [3] of the same molecule?
A: 7.32 µM

Q: What about the IC50 [4] of the same molecule?
A: 0.128 µM
